What was measured:
[1] = target: T1, Complement C1r subcomponent (Homo sapiens, UniProt P00736); assay: In vitro inhibition of purified human C1r protease.
T1 sequence (P00736 whole entry): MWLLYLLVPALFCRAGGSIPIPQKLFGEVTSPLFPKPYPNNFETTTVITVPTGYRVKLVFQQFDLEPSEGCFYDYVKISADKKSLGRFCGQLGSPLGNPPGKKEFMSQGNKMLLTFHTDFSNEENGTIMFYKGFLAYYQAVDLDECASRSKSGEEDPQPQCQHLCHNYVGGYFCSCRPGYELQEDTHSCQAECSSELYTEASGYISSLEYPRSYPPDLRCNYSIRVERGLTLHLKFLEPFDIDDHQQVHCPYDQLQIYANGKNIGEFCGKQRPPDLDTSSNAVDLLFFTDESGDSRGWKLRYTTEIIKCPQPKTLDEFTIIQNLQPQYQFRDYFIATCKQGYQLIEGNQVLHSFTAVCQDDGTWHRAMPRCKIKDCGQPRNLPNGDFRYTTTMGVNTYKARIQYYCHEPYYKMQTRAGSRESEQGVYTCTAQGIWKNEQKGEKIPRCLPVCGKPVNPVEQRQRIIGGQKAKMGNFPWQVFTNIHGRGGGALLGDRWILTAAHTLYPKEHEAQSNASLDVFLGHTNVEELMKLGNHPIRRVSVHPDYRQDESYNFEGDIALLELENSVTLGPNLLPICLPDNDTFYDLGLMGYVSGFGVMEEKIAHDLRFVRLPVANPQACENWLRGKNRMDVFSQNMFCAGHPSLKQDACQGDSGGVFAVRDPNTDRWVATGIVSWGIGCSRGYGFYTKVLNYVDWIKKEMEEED

[2] = target: T1, Complement C1r subcomponent; assay: Evaluated in vitro for inhibitory activity against purified human C1r protease incubated in buffer for 60 minutes
[3] = Percent of inhibition at 200 uM was determined in hemolysis assay using suspension of sheep erythrocytes sensitized with antibodies to sheep erythrocytes; format: functional, Ovis aries; set-up: scale not given: the % may be the effect or the level left
[4] = target: T2, Complement C1r subcomponent (Homo sapiens) (UniProt P00736); assay: Compound was evaluated for inhibitory activity against purified human C1r protease at 31.2 uM
T2 sequence (whole entry): T1 sequence (P00736 whole entry)

[5] = (§1) Inhibitory activity against hemolysis at 200 uM using suspension of sheep erythrocytes sensitized with antibodies to sheep erythrocytes; format: functional; conditions: Ovis aries
[6] = as §1; format: functional, Ovis aries; set-up: scale not given: the % may be the effect or the level left
[7] = Compound was evaluated for inhibitory activity in hemolysis assay using suspension of sheep erythrocytes sensitized with antibodies to sheep erythrocytes; format: functional, Ovis aries
[8] = target: T2, Complement C1r subcomponent (Homo sapiens); assay: Compound was evaluated for inhibitory activity against purified human C1r protease at 62 uM was reported after 60 min.
[9] = target: T2, Complement C1r subcomponent (Homo sapiens); assay: Compound was evaluated for inhibitory activity against purified human C1r protease at 15 uM concentration

Row | SMILES | IC50 [1] | IC50 [2] | other results
1 | CCN(c1nc2ccccc2c(=O)o1)S(=O)(=O)c1ccc(Cl)cc1 | 30 µM | 62 µM | –
2 | O=c1oc(Nc2ccccc2I)nc2cc(C(F)(F)F)ccc12 | – | – | Control [3]: 146%
3 | CN(c1nc2ccccc2c(=O)o1)S(=O)(=O)c1c(Cl)cccc1Cl | 7.5 µM | > 62 µM | –
4 | N=C(N)Nc1ccc(C(=O)Oc2ccc3cc(C(=N)N)ccc3c2)cc1 [NAFAMOSTAT] | – | – | IC50 [7]: 16.6 µM
5 | CN(c1nc2ccccc2c(=O)o1)S(=O)(=O)c1ccc(C(C)(C)C)cc1 | > 60 µM | > 60 µM | –
6 | COc1ccc(S(=O)(=O)N(C)c2nc3ccccc3c(=O)s2)cc1 | > 62.5 µM | – | –
7 | COc1ccc(S(=O)(=O)N(C)c2nc3ccccc3c(=O)o2)cc1 | 0.7 µM | 6 µM | inhibition at 200 µM [5]: 80%
8 | CN(c1nc2ccccc2c(=O)o1)S(=O)(=O)c1ccccc1Br | 2.8 µM | 25 µM | –
9 | Cc1ccc(S(=O)(=O)N(C)c2nc3ccccc3c(=O)o2)cc1 | 7.8 µM | – | inhibition [8]: 40%
10 | CN(c1nc2ccccc2c(=O)o1)S(=O)(=O)c1ccc(N)cc1 | 7 µM | 62 µM | IC50 [7]: 8 µM

Now from value to compound, other results behind:

Row | IC50 [1] | IC50 [2] | SMILES | other results
11 | – | > 62 µM | CN(c1nc2ccccc2c(=O)o1)S(=O)(=O)c1ccc(Cl)cc1 | inhibition [4]: 40%
12 | 3.2 µM | 8.3 µM | CCN(c1nc2ccccc2c(=O)o1)S(=O)(=O)c1ccccc1 | inhibition at 200 µM [5]: 86%
13 | 24 µM | 58 µM | CN(c1nc2ccccc2c(=O)o1)S(=O)(=O)c1cccc(Cl)c1 | inhibition at 200 µM [5]: 49%
14 | 4 µM | 6 µM | CN(c1nc2ccccc2c(=O)o1)S(=O)(=O)c1ccccc1 | Control [6]: 162%
15 | > 62.5 µM | – | CN(c1nc2ccccc2c(=O)s1)S(=O)(=O)c1ccccc1 | Control [6]: 162%
16 | 6 µM | 10 µM | CN(c1nc2ccccc2c(=O)o1)S(=O)(=O)c1cccc2ccccc12 | inhibition at 200 µM [5]: 56%
17 | 31 µM | – | CN(c1nc2ccccc2c(=O)o1)S(=O)(=O)c1ccc([N+](=O)[O-])cc1 | –
18 | – | > 62.5 µM | CN(c1nc2ccccc2c(=O)o1)S(=O)(=O)c1ccc(Cl)c(Cl)c1 | inhibition [9]: 20%
19 | 1.5 µM | 3 µM | CN(c1nc2ccccc2c(=O)o1)S(=O)(=O)c1ccc(NC(=N)N)cc1 | IC50 [7]: 18 µM
20 | 20 µM | – | CN(c1nc2ccccc2c(=O)o1)S(=O)(=O)c1ccc(C#N)cc1 | inhibition [8]: 30%

Source: ChEMBL document CHEMBL1132071, “Benzenesulfonamide derivatives of 2-substituted 4H-3,1-benzoxazin-4-ones and benzthiazin-4-ones as inhibitors of complement C1r protease” (Bioorg Med Chem Lett, 1999)
